Assay results as given in US10105414B2, “Peptides derived from RS1 which down-regulate glucose absorption after a glucose rich meal and increase insulin sensitivity” (Julius-Maximilians-Universität Würzburg, priority 2014, dated 2018).
Where a chain is given by its changes, count along the chain named. Numbers in names are those of the source. Like-named read-outs stand apart in the source and are kept apart here.

Tests used:
hCNT1 = assay: hCNT1-mediated uridine uptake in Xenopus laevis oocytes after injection of peptides; assay type: cell-based, human; conditions: no AMG injected; for uptake of 5 μM [3H]uridine expressed by hCNT1: low intracellular glucose
Method: (§1) Selected oocytes were injected with 50 nl of water containing cRNAs (2.5 ng of hSGLT1 or 0.5 ng of hCNT1). For expression oocytes were incubated for 2-3 days at 16° C. in modified Barth's solution with gentamycin. Noninjected control oocytes were incubated in parallel.
(§2) Before uptake measurements were started, 50 nl of K-Ori buffer containing peptides, polypeptides, 1 pM of calmodulin stimulated kinase 2 (CK2) inhibitor KN93 (Calbiochem San Diego. Calif.), 3 mM of the omithinedecarboxlase inhibitor difluoromethylornithine DFMO and/or or 100 pmol α-methyl-α-D-glucopyranoside (AMG) were injected and the oocytes were incubated for 1 h at room temperature. Uptake was measured in Ori buffer at room temperature. Measurements in transporter expressing oocytes were corrected for measurements in noninjected oocytes. Uptake of 50 μM [^14C]AMG was measured after 15 min incubation and washing in ice-cold Ori buffer containing 1 mM phlorizin. Uptake of 5 μM [^3H]uridine was measured after 15 min incubation and washing in ice-cold Ori buffer. Oocytes were solubilized in 5% (w/v) SDS and analyzed for radioactivity by scintillation counting.
(§3) For comparison of mean values from 2 groups the Student's t-test for unpaired samples was employed.

hCNT3 = assay: hCNT3-mediated uridine uptake in Xenopus laevis oocytes after injection of peptides; assay type: cell-based, human; conditions: low intracellular glucose, no AMG injected
Method: FIG. 9. […] Posttransciptional downregulation of hCNT1 and hCNT3 was measured without injection of AMG. […] One hour later uptake of 5 μM [^3H]uridine was measured.
as §2

hSGLT1 [1] = conditions: cited from earlier work
mSGLT1 [2] = conditions: 5 mM tripeptide, 30 min, 37° C., 5 mM D-glucose
Method: (§4) Standardised t areas of human small intestinal mucosa (FIGS. 13,19) or 1 cm segments of everted mouse small intestine (FIGS. 14,15,20) were washed three times at 37° C. with Krebs-Ringer buffer containing 5 mM D-glucose and incubated for 30 min at 37° C. in Krebs-Ringer buffer containing 5 mM D-glucose plus different concentrations of tripeptides. Thereafter the tissue was washed three times at 0° C. in Krebs-Ringer buffer without glucose and uptake measurements were performed.
(§5) For measurement of SGLT1 mediated glucose uptake, the everted segments of mouse small intestine or defined areas of human mucosa were incubated for 2 min at 37° C. with Krebs-Ringer buffer containing 10 μM [^14C]AMG with or without 0.2 mM phlorizin. Uptake was stopped by transferring the segments into ice cold Krebs-Ringer buffer containing 0.2 mM phlorizin for 5 min. After washing with ice cold Krebs-Ringer buffer the intestinal segments or pieces of human mucosa were dissolved in 0.5 ml Soluence-350) (Perkin Elmer Inc. Waltham Mass., USA). Radioactivity was analysed by liquid scintillation counting. Phlorizin inhibited AMG uptake per cm length or per standard area of the mucosa was calculated.
Thereafter the segments were washed with PBS buffer and phlorizin inhibited uptake of 10 μM [^14C]AMG was measured.

mSGLT1 [3] = conditions: RS1−/− mice starved over night; gavage 20 μmol per mouse; after 2 h
Method: as §5
After 2 h the animals were killed, their small intestines were everted and phlorizin inhibited uptake of 10 μM [^14C]AMG Into segments of the everted jejunum was measured (FIG. 12A).

hSGLT1 [4] = assay: hSGLT1-mediated AMG uptake in Xenopus laevis oocytes 1 h after injection of peptides; assay type: cell-based, human; conditions: for down-regulation of hSGLT1: without injection of AMG (<10 μM); for affinity for down-regulation of hSGLT1 compared with hRS1-Reg wildtype: low intracellular glucose; for effect of intracellular AMG on the affinity for down-regulation of hSGLT1: without versus with injection of AMG
Method: as §1, §2, §3

hSGLT1 [5] = conditions: 5 mM D-glucose, 30 min
Method: Jejunal segments which were routinely dissected during bariatric operations of highly obese patients were stored for 1-3 h on ice in Dulbecco's modified Eagle's medium containing 5 mM D-glucose. The mucosa was isolated and circular areas of the mucosa were dissected using a punching instrument.
as §4, §5
Next, it was investigated which of the QXP-type tripeptides are capable to downregulate hSGLT1 expression in human small intestine in the presence of high glucose. Jejunal samples that were obtained during bariatric surgery of obese patients (males and females with a mean age of 50 years with a mean body mass index of 50) were used. […] A part of the jejumum which is routinely removed during bariatric surgery, was carried to the laboratory using ice-cold culture medium containing 6 mM D-glucose. Part of the mucosa was dissected and identical areas of the mucosa were isolated using a punching instrument. The mucosal pieces were washed with glucose free buffer and incubated for 30 min at 37° C. in tissue culture medium (pH 6.4) containing 5 mM D-glucose and different QXP-type tripeptides. Thereafter the sample were washed two times with PBS buffer (pH 7.4, 37° C.) and incubated for 2 min at 37° C. in PBS (pH 7.4) containing 100 mM sodium and 10 μM [^14C]AMG. The incubation was performed in the absence and presence of 200 μM of the SGLT1 inhibitor phlorizin. Thereafter the samples were washed with ice-cold PBS, the tissue was dissolved, and radioactivity was determined by liquid scintillation counting. The phorizin inhibited AMG uptake was calculated.

mSGLT1 [6] = assay: Phlorizin inhibited AMG uptake into everted small intestine after gavage of mice with mRS1-Reg coupled to hydrogel nanoparticles; assay type: in vivo, mouse; conditions: gavage 1 nmol coupled to nanoparticles, 2 h
Method: Inversed miniemulsions were prepared from 2.5 ml hexane containing 50.3 mg Span 80 (Sigma, Taufkirchen, Germany) and 16.7 mg TWEEN 80™ (Sigma) and 0.4 ml 20 mM Hepes pH 7.4 containing 100 mg of thiol-functionalized linear poly(glycidol) polymer (Groll (2009) Journal of Polymer Science 47,5543-5549), 0.5 mg […] (TAT-peptide, Peptides International, Louisville, Ky., USA), and 0.28 mg cysteine-terminated RS1-Reg peptide. In control nanohydrogels the RS1-Reg peptide was omitted. The nanogels were prepared as described (Groll (2009) Journal of Polymer Science 47,5543-5549). Shortly, the organic and aqueous phase were combined, stirred, and a miniemulsion was prepared by ultrasonication at 0° C. For formation of disulphide bridges 60 μL of 0.1 M H2O2 in water were added. The mixture was sonicated for 60 s and incubated for 25 min at room temperature. Oxidation was quenched by acidification and the nanogels were separated by centrifugation. The aqueous layer containing the nanogels was separated and washed four times with a tetrahydrofuran/water (20%/80%)-mixture to remove the surfactants and unreacted polymer. Remaining organic solvents and acid were removed by dialysis against water. The nanohydrogel suspension was stored up to two weeks stored at 4° C.
Male Rs1−/− mice or wildtype mice (Osswald (2005) Mol Cell Biol. 25, 78-87) kept on standard diet were starved over night and gavaged with 200 μl water (adjusted with HCl to pH 5.5) containing 10 mg nanohydrohydrogel that was loaded with 45 μg mRS1-Reg mutant. As a control unloaded nanohydrogel was used. […] The jejunum was cut into 1 cm long segments.
Radioactivity was analysed by liquid scintillation counting.
RS1−/− mice starved overnight were gavaged with 200 μl empty NPs (control) or 200 μl NPs loaded with 1 nmol mRS1-Reg(S19A) or 1 nmol mRS1-Reg(S19E). […] 2 h after gavage with mRS1-Reg mutants coupled to NPs, phlorizin (200 μM) Inhibited uptake of 10 μM AMG labelled containing tracer [^14C]AMG after 2 min incubation at 37° C. (FIG. 21A, C) or uptake of 1 mM AMG labelled with tracer [^14C]AMG after 2 min incubation at 37° C. was measured (FIG. 21B, D). […] Since AMG is rapidly transported by mSGLT1 into the enterocytes the intracellular concentration increases within seconds to values higher than 0.25 mM when the cells were incubated with 1 mM AMG. […] In contrast phlorizin-inhibited uptake of 10 μM AMG or 1 mM AMG was inhibited by 26 and 30% respectively. […] The data further indicate that gavage of a mouse with 1 nmol mRS1-Reg(S19E) is sufficient to downregulate SGLT1 in the presence of low and high intracelluar glucose.

[7] = 5 pM, intracellular AMG ~0.25 mM

## SDSDRIEP [octapeptide corresponding to a particular motif of human RS1, reference compound]
hCNT1
  uptake of 5 μM [3H]uridine expressed by hCNT1: decreased
hCNT3
  uptake of 5 μM [3H]uridine expressed by hCNT3: decreased

## glutamine-serine-proline [QSP, reference compound]
hSGLT1 [1]; 200 nM QSP, intracellular AMG <10 μM
  inhibition of hSGLT1 expression in oocytes: 40-50%
hSGLT1 [1]; 200 nM QSP, intracellular AMG higher than 250 μM
  inhibition of hSGLT1 expression in oocytes after injection of AMG: abolished
hSGLT1 [1]; intracellular AMG higher than 0.1 mM
  down-regulation of hSGLT1 at raised intracellular AMG: blunted
hCNT1
  uptake of 5 μM [3H]uridine expressed by hCNT1: not able to inhibit
mSGLT1 [2]; wildtype mice
  decrease of SGLT1 mediated uptake of 10 μM [14C]AMG: no significant effect
mSGLT1 [3]
  decrease of phlorizin inhibited uptake of 10 μM [14C]AMG into everted jejunum: no significant effect
hCNT3
  uptake of 5 μM [3H]uridine expressed by hCNT3: not able to inhibit
hSGLT1 [4]; 50 nM tripeptide, no AMG injected
  inhibition of SGLT1 mediated transport: inhibition
hSGLT1 [4]; 250 μM intracellular AMG
  effect on hSGLT1 expression: abolished
hSGLT1 [4]; without injection of AMG (intracellular AMG <10 μM), read-out: IC50 for down-regulation of hSGLT1-mediated AMG uptake
  IC50: 0.2 nM

## glutamine-serinethiophosphate-proline [QSthiophosphateP]
mSGLT1 [2]; RS1−/− mice
  decrease of SGLT1 mediated uptake of 10 μM [14C]AMG: significantly inhibited
mSGLT1 [2]; wildtype mice
  decrease of SGLT1 mediated uptake of 10 μM [14C]AMG: significantly inhibited
hSGLT1 [5]; 5 mM
  down-regulation of hSGLT1 mediated AMG uptake: ~30%
hSGLT1 [5]; 15 mM
  down-regulation of hSGLT1 mediated AMG uptake: ~40%
hSGLT1 [4]; [7]
  degree of down-regulation of hSGLT1: ~75%
  down-regulation of hSGLT1 expression: down-regulated
hSGLT1 [4]; 5 pM
  down-regulation of hSGLT1: not
hSGLT1 [4]; 500 pM, intracellular AMG ~0.25 mM
  down-regulation of hSGLT1 expression: down-regulated
hSGLT1 [4]; 500 pM
  down-regulation of hSGLT1: down-regulated

B1: hRS1-Reg(S45A): hRS1-Reg with serine 45 replaced by alanine to prevent phosphorylation (protein)
chain: SSGQSPDVGNPMSLARSVSASVCPIKPSDADRIEPKAVKALKASAEFQLNSEKKEHLSLQDLSDHASSADHAPTDQSPAMPMQ
modifications: left off: small tags and cut ends
notes: hRS1-Reg with serine 45 replaced by alanine to prevent phosphorylation
hSGLT1 [4]; no AMG injected
  affinity for down-regulation of hSGLT1 compared with hRS1-Reg wildtype: similar
hSGLT1 [4]
  effect of intracellular AMG on the affinity for down-regulation of hSGLT1: abolished

B2: hRS1-Reg(S45E): hRS1-Reg with serine 45 replaced by glutamate to mimick phosphorylation (protein)
chain: B1 chain with A30E
modifications: left off: small tags and cut ends
notes: hRS1-Reg with serine 45 replaced by glutamate to mimick phosphorylation
hCNT1
  affinity for down-regulation of hCNT1 compared with hRS1-Reg wildtype: similar
  effect of mimicking phosphorylation in position 45 on affinity for down-regulation of hCNT1: decreases affinity
hSGLT1 [4]; no AMG injected
  affinity for down-regulation of hSGLT1 compared with hRS1-Reg wildtype: increases affinity
hSGLT1 [4]
  effect of intracellular AMG on the affinity for down-regulation of hSGLT1: abolished

B3: hRS1-Reg(S20A): hRS1-Reg mutant preventing phosphorylation at serine in position 20 (protein)
chain: B1 chain with S5A, A30S
modifications: left off: small tags and cut ends
hSGLT1 [4]; no AMG injected
  affinity for down-regulation of hSGLT1 compared with hRS1-Reg wildtype: does not alter the affinity

B4: hRS1-Reg(S20E): hRS1-Reg, the first/N-terminal QSP motive is replaced by QEP (SEQ ID No. 9) (protein)
chain: B1 chain with S5E, A30S
modifications: hRS1-Reg(S20E)
hSGLT1 [4]; high intracellular glucose (AMG ~250 μM)
  affinity for down-regulation of hSGLT1 higher than hRS1-Reg wildtype: 15 Mill
hSGLT1 [4]; intracellular AMG ~250 μM versus low
  increase of affinity (decrease of IC50) for down-regulation of hSGLT1 at high versus low intracellular AMG: 300 fold

B5: mRS1-Reg(S19E): mRS1-Reg, first/N-terminal QSP motive replaced by QEP (SEQ ID No. 10), coupled to hydrogel nanoparticles for gavage (protein)
chain: PSGQEPEVGSPTSLARSVSASVCAIKPGDPNSIESLAMEATKASAEFQTNSKKTDPPPLQVLPDLASSAEQSLAMPFH
modifications: coupled to hydrogel nanoparticles; mRS1-Reg(S19E)
mSGLT1 [6]; RS1−/− mice
  inhibition of phlorizin-inhibited uptake of 10 μM AMG: 26%
  inhibition of phlorizin-inhibited uptake of 1 mM AMG: 30%
mSGLT1 [6]; wild type mice
  decrease of uptake of 1 mM AMG (high intracellular glucose): 40%
  uptake of 10 μM AMG (low intracellular glucose): not altered
